Assay results: US20120029016A1, “Indoles Useful in the Treatment of Inflammation” (BIOLIPOX AB, priority 2008, published 2012)

How the values were obtained:
[1] = molecular target: T1, Recombinant human LTC4 synthase (Homo sapiens, UniProt Q16873); assay: In vitro assay Method A: LTC4 synthase, LTA4 methyl ester to LTC4 methyl ester, HPLC; type: biochemical; settings: total concentration of title compound 10 μM, read-out: % inh. of LTC4 synthase
T1 construct: made in house; host or cells: Pichia pastoris ('Piccia pastoralis' [sic])
T1 sequence (Q16873 1-150): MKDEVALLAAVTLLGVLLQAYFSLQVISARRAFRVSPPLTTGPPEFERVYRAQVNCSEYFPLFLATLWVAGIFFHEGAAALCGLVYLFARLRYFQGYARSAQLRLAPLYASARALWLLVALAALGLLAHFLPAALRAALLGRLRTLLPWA
Description: In the assay, LTC4 synthase catalyses the reaction where the substrate LTA4 methyl ester is converted to the corresponding LTC4 methyl ester. Recombinant human LTC4 synthase is expressed in Piccia pastoralis and the purified enzyme is dissolved in 25 mM Tris-buffer pH 7.8 and stored at −20° C. The assay is performed in phosphate buffered saline (PBS) pH 7.4, supplemented with 5 mM glutathione (GSH). The reaction is terminated by addition of MeCN/MeOH/acetic acid (50/50/1). The assay is performed at rt in 96-well plates. Analysis of the formed LTC4 methyl ester is performed with reversed phase HPLC (Waters 2795 utilizing an Onyx Monolithic C18 column). The mobile phase consists of MeCN/MeOH/H2O (32.5/30/37.5) with 1% acetic acid, pH adjusted with NH3 to 5.6, and absorbance measured at 280 nm with a Waters 2487 UV-detector.
(§1) The following is added chronologically to each well: • 1. 50 μL assay buffer, PBS with 5 mM GSH. • 2. 0.5 μL inhibitor in DMSO. • 3. 2 μL LTC4 synthase in PBS. The total protein concentration in this solution is 0.025 mg/mL. Incubation of the plate at rt for 10 min. • 4. 1-1.5 μL LTA4 methyl ester (final conc. 10 μM). Incubation of the plate at rt for 1 min. • 5. 50 μL stop solution. 80 μL of the incubation mixture is analysed with HPLC.

[2] = molecular target: T1, Recombinant human LTC4 synthase; assay: In vitro assay Method B: LTC4 synthase, LTA4 to LTC4, HTRF detection; type: biochemical; settings: total concentration of title compound 10 μM, read-out: % inh. of LTC4 synthase
Description: In the assay, LTC4 synthase catalyses the reaction where the substrate LTA4 is converted to LTC4. Recombinant human LTC4 synthase is expressed in Piccia pastoralis and the purified enzyme is dissolved in 25 mM Tris-buffer pH 7.8 and stored at −20° C. The assay is performed in phosphate buffered saline (PBS) pH 7.4, supplemented with 5 mM glutathione (GSH). The assay is performed at rt in 384-well plates. Analysis of the formed LTC4 is performed using costume made homogenous time-resolved fluorescence (HTRF) detection (Cisbio).
as §1, with “2 μl” for “2 μL”, “0.025 mg/ml.” for “0.025 mg/mL.”, “LTA4” for “LTA4 methyl ester”, “conc. 2.5” for “conc. 10”, “min. 10” for “min. • 5. 50 μL stop solution. 80”, “analysed using HTRF detection.” for “analysed with HPLC.”

[3] = tested on: cysteinyl leukotrienes concentration in the peritoneal lavage; assay: Mouse peritoneal inflammation model (zymosan ip), cysteinyl leukotrienes in peritoneal lavage by EIA; type: in vivo, Male BALB/c mice; settings: 0.5 h, 5 min before zymosan, lavage 30 min after zymosan, read-out: %-inhibition of cysteinyl leukotrienes concentration vs vehicle treated mice; for inhibition in vivo at 10 mg/kg: 10 mg/kg ip; for inhibition in vivo at 3 mg/kg: 3 mg/kg ip
Description: The in vivo efficacy of leukotriene biosynthesis inhibitors was assed by using a model of peritoneal inflammation. Male BALB/c mice (weighing 20-25 grams) received an intraperitoneal injection (ip) of 0.5 ml zymosan dissolved in phosphate buffer saline (PBS) (pH 7.5, 1 mg/mL). 5 Minutes before the zymosan injection compounds (1-10 mg/kg) or vehicle were administered ip (10 mL/kg). 30 min after the zymosan injection the mice were anaesthetized and the peritoneal cavity was flushed with 4 mL PBS. The peritoneal lavage was centrifuged at 6000 rcf for 5 minutes and the cysteinyl leukotrienes concentration in the supernatant was determined by EIA. The cysteinyl leukotrienes concentration in the peritoneal lavage from compound treated mice was compared to vehicle treated mice and the % inhibition was calculated.

SMILES | inhibition at 10 µM [1] | inhibition at 10 µM [2] | inhibition in vivo at 10 mg/kg [3] | inhibition in vivo at 3 mg/kg [3]
O=C(O)Cc1c(C(=O)O)c2cc(Oc3ccc(OC(F)(F)F)cc3)ccc2n1-c1ccc(OCc2ccccc2)cc1 [Example 2:1, 1-(4-Benzyloxyphenyl)-2-carboxymethyl-5-(4-trifluoromethoxyphenoxy)indole-3-carboxylic acid] | 89% | – | – | –
O=C(O)Cc1c(C(=O)O)c2cc(Oc3ccc(OC(F)(F)F)cc3)ccc2n1-c1ccc(OC2CCCCC2)cc1 [Example 4:5, 2-Carboxymethyl-1-(4-cyclohexyloxyphenyl)-5-(4-trifluoromethoxyphenoxy)indole-3-carboxylic acid] | – | 99% | – | 97%
CCCCCCCCOc1ccc(-n2c(CC(=O)O)c(C(=O)O)c3cc(Oc4ccc(OC(C)C)cc4)ccc32)cc1 [Example 5:2, 2-Carboxymethyl-1-(4-octyloxyphenyl)-5-(4-isopropoxyphenoxy)indole-3-carboxylic acid] | – | 97% | – | 94%

The next lines start with results.

inhibition at 10 µM [1] | inhibition at 10 µM [2] | SMILES | inhibition in vivo at 10 mg/kg [3] | inhibition in vivo at 3 mg/kg [3]
98% | – | CC(C)Oc1ccc(Oc2ccc3c(c2)c(C(=O)O)c(CC(=O)O)n3-c2ccc(OCc3ccc4ccccc4n3)cc2)cc1 [1:10, 2-Carboxymethyl-1-5-(4-isopropoxyphenoxy)-[4-(2-quinolinylmethoxy)-phenyl]indole-3-carboxylic acid] | – | –
– | 96% | CC(C)Oc1ccc(Oc2ccc3c(c2)c(C(=O)O)c(CC(=O)O)n3-c2ccc(Oc3ccc(Cl)cc3)cc2)cc1 [Example 3:3, 2-Carboxymethyl-1-[4-(4-chlorophenoxy)phenyl]-5-(4-isopropoxy-phenoxy)indole-3-carboxylic acid] | 100% | –
– | 98% | CC(C)Oc1ccc(Oc2ccc3c(c2)c(C(=O)O)c(CC(=O)O)n3-c2ccc(OC3CCCC3)cc2)cc1 [Example 4:1, 2-Carboxymethyl-1-(4-cyclopentyloxyphenyl)-5-(4-isopropoxyphenoxy)-indole-3-carboxylic acid] | 96% | –
